Here are results for ten molecules from ChEMBL document CHEMBL1129747, “Head group analogs of arachidonylethanolamide, the endogenous cannabinoid ligand” (J Med Chem, 1996).

Sequence of Cannabinoid receptor 2 (P47936 whole entry): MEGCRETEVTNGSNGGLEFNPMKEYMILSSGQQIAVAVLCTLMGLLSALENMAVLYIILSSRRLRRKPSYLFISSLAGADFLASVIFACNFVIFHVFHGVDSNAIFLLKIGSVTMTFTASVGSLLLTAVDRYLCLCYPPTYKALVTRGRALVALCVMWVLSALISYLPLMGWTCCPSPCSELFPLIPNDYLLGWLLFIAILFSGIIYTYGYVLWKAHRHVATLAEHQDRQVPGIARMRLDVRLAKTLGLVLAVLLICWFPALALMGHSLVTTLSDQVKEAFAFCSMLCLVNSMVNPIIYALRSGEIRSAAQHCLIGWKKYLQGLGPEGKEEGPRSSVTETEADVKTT

The first test has as its target Cannabinoid receptor 2 (Mus musculus, UniProt P47936). The test can be described thus: Compound was evaluated for its binding affinity for mouse spleen Cannabinoid receptor 2.
For the molecule `CCCCC/C=C\C/C=C\C/C=C\C/C=C\CCCC(=O)NCc1ccc(O)cc1`, the affinity corresponds to a Ki of 11000 nM.
On to `CCCCC/C=C\C/C=C\C/C=C\C/C=C\CCCC(=S)NCCO`, for which the Ki (usually the equilibrium dissociation constant of an inhibitor or competing ligand from its target) stood at 6300 nM.
The same measure, in the same setting: the result for `CCCCC/C=C\C/C=C\C/C=C\C/C=C\CCCC(=O)N[C@H](C)CO` [METHANANDAMIDE] reads 815 nM; that for `CCCCC/C=C\C/C=C\C/C=C\C/C=C\CCCC(=O)Nc1ccc(O)cc1`, 13000 nM; that for `CCCCC/C=C\C/C=C\C/C=C\C/C=C\CCCC(=O)Nc1ccccc1O`, 2100 nM.
The molecule `CCCCC/C=C\C/C=C\C/C=C\C/C=C\CCCC(=O)NCCO` [ANANDAMIDE] gave a Ki of 1930 nM.
Still for that read-out and setting: the result for `CCCCC/C=C\C/C=C\C/C=C\C/C=C\CCCC(=O)Nc1cccc(O)c1` reads 3100 nM.

The target in the next test is Cannabinoid receptor 1 (Rattus norvegicus, UniProt P20272). The test can be described thus: Displacement of [3H]CP-55940 from Cannabinoid receptor 1 of rat forebrain membranes. Format: cell membranes, Membrane. Background: Loss of bound radioactivity is the signal in a displacement assay; it reports binding, not function.
Sequence of Cannabinoid receptor 1 (P20272 whole entry): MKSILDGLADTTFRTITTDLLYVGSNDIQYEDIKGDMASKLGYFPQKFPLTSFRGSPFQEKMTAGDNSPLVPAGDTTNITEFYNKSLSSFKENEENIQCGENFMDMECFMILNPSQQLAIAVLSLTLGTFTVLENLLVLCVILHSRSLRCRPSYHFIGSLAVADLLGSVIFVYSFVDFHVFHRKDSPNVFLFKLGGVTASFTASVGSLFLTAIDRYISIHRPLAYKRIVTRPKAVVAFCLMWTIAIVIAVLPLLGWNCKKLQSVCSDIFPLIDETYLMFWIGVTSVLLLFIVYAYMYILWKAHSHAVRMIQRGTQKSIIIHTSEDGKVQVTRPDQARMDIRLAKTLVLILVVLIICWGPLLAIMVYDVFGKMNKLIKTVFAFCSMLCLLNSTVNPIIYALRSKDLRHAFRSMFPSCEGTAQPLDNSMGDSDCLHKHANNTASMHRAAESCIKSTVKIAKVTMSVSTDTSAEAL
`CCCCC/C=C\C/C=C\C/C=C\C/C=C\CCCC(=O)NCc1ccc(O)cc1`: the Ki came out at 217 nM.
`CCCCC/C=C\C/C=C\C/C=C\C/C=C\CCCC(=S)NCCO` yielded a Ki of 1380 nM.
Molecule `CCCCC/C=C\C/C=C\C/C=C\C/C=C\CCCC(=O)Nc1ccc(O)cc1` came in with an inhibition constant (Ki) of 1760 nM.
`CCCCC/C=C\C/C=C\C/C=C\C/C=C\CCCC(=O)Nc1ccccc1O`: the inhibition constant (Ki) is 1660 nM.
In the case of `CCCCC/C=C\C/C=C\C/C=C\C/C=C\CCCC(=O)N[C@H]1CCCC[C@@H]1O`, the Ki is more than 3000 nM.
The molecule `CCCCC/C=C\C/C=C\C/C=C\C/C=C\CCCC(=O)NCC(O)CC` (stereo not given) registered a Ki of 203 nM.
`CCCCC/C=C\C/C=C\C/C=C\C/C=C\CCCC(=O)Nc1cccc(O)c1` yielded an inhibition constant (Ki) of 1560 nM.
Same read-out and setting: the result for `CCCCC/C=C\C/C=C\C/C=C\C/C=C\CCCC(=O)NC(CO)CO` reads 363 nM.
